Results published in PubChem BioAssay (NCI).
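How tested: cells in 96-well plates exposed to compound for 48 hours at five concentrations. TGI: total growth inhibition.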

What was measured:
Experiment in all cases: NCI-60 cell line screen, 48 h
SK-MEL-28 melanoma = test system: SK-MEL-28 melanoma
SNB-19 CNS = test system: SNB-19 CNS
EKVX NSCLC = test system: EKVX NSCLC
OVCAR-5 ovarian = test system: OVCAR-5 ovarian
OVCAR-3 ovarian = test system: OVCAR-3 ovarian
T-47D breast = test system: T-47D breast
RPMI-8226 leukemia = test system: RPMI-8226 leukemia
UACC-257 melanoma = test system: UACC-257 melanoma
786-0 renal = test system: 786-0 renal
U251 CNS = test system: U251 CNS
K-562 leukemia = test system: K-562 leukemia
NCI-H522 lung = test system: NCI-H522 lung
SF-539 CNS = test system: SF-539 CNS
MDA-N = test system: MDA-N
HOP-92 NSCLC = test system: HOP-92 NSCLC
SF-268 CNS = test system: SF-268 CNS
HS 578T breast = test system: HS 578T breast
OVCAR-8 ovarian = test system: OVCAR-8 ovarian
MOLT-4 leukemia = test system: MOLT-4 leukemia
NCI/ADR-RES ovarian = test system: NCI/ADR-RES ovarian
SR leukemia = test system: SR leukemia
DU-145 prostate = test system: DU-145 prostate
LOX IMVI melanoma = test system: LOX IMVI melanoma
MCF7 breast = test system: MCF7 breast
HOP-62 NSCLC = test system: HOP-62 NSCLC
RXF 393 renal = test system: RXF 393 renal
HL-60(TB) leukemia = test system: HL-60(TB) leukemia
SK-MEL-5 melanoma = test system: SK-MEL-5 melanoma
HCT-116 colon = test system: HCT-116 colon
TK-10 renal = test system: TK-10 renal
HCC-2998 colon = test system: HCC-2998 colon
CCRF-CEM leukemia = test system: CCRF-CEM leukemia
MDA-MB-435 = test system: MDA-MB-435
SK-OV-3 ovarian = test system: SK-OV-3 ovarian
NCI-H23 lung = test system: NCI-H23 lung
COLO 205 colon = test system: COLO 205 colon
IGROV1 ovarian = test system: IGROV1 ovarian
KM12 colon = test system: KM12 colon
BT-549 breast = test system: BT-549 breast
SNB-75 CNS = test system: SNB-75 CNS
MDA-MB-231 breast = test system: MDA-MB-231 breast
SF-295 CNS = test system: SF-295 CNS
M14 melanoma = test system: M14 melanoma
HT29 colon = test system: HT29 colon
SN12C renal = test system: SN12C renal
SK-MEL-2 melanoma = test system: SK-MEL-2 melanoma
PC-3 prostate = test system: PC-3 prostate
OVCAR-4 ovarian = test system: OVCAR-4 ovarian
UO-31 renal = test system: UO-31 renal
ACHN renal = test system: ACHN renal
A549 NSCLC = test system: A549 NSCLC
CAKI-1 renal = test system: CAKI-1 renal
A498 renal = test system: A498 renal
HCT-15 colon = test system: HCT-15 colon
NCI-H226 lung = test system: NCI-H226 lung
UACC-62 melanoma = test system: UACC-62 melanoma
SW-620 colon = test system: SW-620 colon
NCI-H460 lung = test system: NCI-H460 lung
MALME-3M melanoma = test system: MALME-3M melanoma

Question: `O=c1ssc2c1Nc1c(ssc1=O)S2` was tested. Which TGI (SK-MEL-28 melanoma) did it give?
Answer: 34.2 µM

Question: What about the TGI (SNB-19 CNS) of the same compound?
Answer: 34.7 µM

Question: And the TGI (EKVX NSCLC)?
Answer: 30 µM

Question: What about the TGI (OVCAR-5 ovarian) of the same compound?
Answer: 32.4 µM

Question: What about the TGI (OVCAR-3 ovarian) of the same compound?
Answer: 32.4 µM

Question: What about the TGI (T-47D breast) of the same compound?
Answer: 26.2 µM

Question: And the TGI (RPMI-8226 leukemia)?
Answer: 21.1 µM

Question: And the TGI (UACC-257 melanoma)?
Answer: 28.3 µM

Question: And the TGI (786-0 renal)?
Answer: 14.5 µM

Question: And the TGI (U251 CNS)?
Answer: 33.3 µM

Question: And the TGI (K-562 leukemia)?
Answer: 25.2 µM

Question: What about the TGI (NCI-H522 lung) of the same compound?
Answer: 37.4 µM

Question: And the TGI (SF-539 CNS)?
Answer: 21.5 µM

Question: What about the TGI (MDA-N) of the same compound?
Answer: 31.9 µM

Question: What about the TGI (HOP-92 NSCLC) of the same compound?
Answer: 28.7 µM

Question: What about the TGI (SF-268 CNS) of the same compound?
Answer: 33.5 µM

Question: And the TGI (HS 578T breast)?
Answer: > 100 µM

Question: What about the TGI (OVCAR-8 ovarian) of the same compound?
Answer: 28.6 µM

Question: What about the TGI (MOLT-4 leukemia) of the same compound?
Answer: 28.4 µM

Question: What about the TGI (NCI/ADR-RES ovarian) of the same compound?
Answer: 37.4 µM

Question: And the TGI (SR leukemia)?
Answer: 5.49 µM

Question: And the TGI (DU-145 prostate)?
Answer: 26.2 µM

Question: And the TGI (LOX IMVI melanoma)?
Answer: 24.3 µM

Question: What about the TGI (MCF7 breast) of the same compound?
Answer: 39.2 µM

Question: What about the TGI (HOP-62 NSCLC) of the same compound?
Answer: 36.4 µM

Question: And the TGI (RXF 393 renal)?
Answer: 17.4 µM

Question: What about the TGI (HL-60(TB) leukemia) of the same compound?
Answer: 15.5 µM

Question: What about the TGI (SK-MEL-5 melanoma) of the same compound?
Answer: 29.4 µM

Question: What about the TGI (HCT-116 colon) of the same compound?
Answer: 31.2 µM

Question: And the TGI (TK-10 renal)?
Answer: 29.5 µM

Question: And the TGI (HCC-2998 colon)?
Answer: 29.4 µM

Question: And the TGI (CCRF-CEM leukemia)?
Answer: 6.8 µM

Question: What about the TGI (MDA-MB-435) of the same compound?
Answer: 33.5 µM

Question: And the TGI (SK-OV-3 ovarian)?
Answer: 36.3 µM

Question: What about the TGI (NCI-H23 lung) of the same compound?
Answer: 35.3 µM

Question: What about the TGI (COLO 205 colon) of the same compound?
Answer: 36.4 µM

Question: What about the TGI (IGROV1 ovarian) of the same compound?
Answer: 26.4 µM

Question: And the TGI (KM12 colon)?
Answer: 28.6 µM

Question: What about the TGI (BT-549 breast) of the same compound?
Answer: 52.5 µM

Question: And the TGI (SNB-75 CNS)?
Answer: 30.2 µM

Question: What about the TGI (MDA-MB-231 breast) of the same compound?
Answer: 57.3 µM

Question: And the TGI (SF-295 CNS)?
Answer: 74.7 µM

Question: And the TGI (M14 melanoma)?
Answer: 27.2 µM

Question: What about the TGI (HT29 colon) of the same compound?
Answer: 73.8 µM

Question: What about the TGI (SN12C renal) of the same compound?
Answer: 28.1 µM

Question: And the TGI (SK-MEL-2 melanoma)?
Answer: 32.1 µM

Question: And the TGI (PC-3 prostate)?
Answer: 25.5 µM

Question: What about the TGI (OVCAR-4 ovarian) of the same compound?
Answer: 28.2 µM

Question: And the TGI (UO-31 renal)?
Answer: 24.4 µM

Question: And the TGI (ACHN renal)?
Answer: 30.2 µM

Question: And the TGI (A549 NSCLC)?
Answer: 41 µM

Question: And the TGI (CAKI-1 renal)?
Answer: 33.3 µM

Question: What about the TGI (A498 renal) of the same compound?
Answer: 24.7 µM

Question: And the TGI (HCT-15 colon)?
Answer: 41.3 µM

Question: And the TGI (NCI-H226 lung)?
Answer: 46.5 µM

Question: And the TGI (UACC-62 melanoma)?
Answer: 27.3 µM

Question: And the TGI (SW-620 colon)?
Answer: 31.1 µM

Question: What about the TGI (NCI-H460 lung) of the same compound?
Answer: 36.4 µM

Question: What about the TGI (MALME-3M melanoma) of the same compound?
Answer: 22.4 µM

Question: With `OC1c2c(ccc3c2CCC3)CC12Cc1ccccc1C2` (stereo not drawn) as the compound, how does the TGI (SK-MEL-28 melanoma) read?
Answer: 30.5 µM

Question: And the TGI (SNB-19 CNS)?
Answer: 32.9 µM

Question: And the TGI (EKVX NSCLC)?
Answer: 31.4 µM

Question: What about the TGI (OVCAR-5 ovarian) of the same compound?
Answer: 31.3 µM

Question: What about the TGI (OVCAR-3 ovarian) of the same compound?
Answer: 26.5 µM

Question: And the TGI (T-47D breast)?
Answer: 53.5 µM

Question: And the TGI (RPMI-8226 leukemia)?
Answer: 50.8 µM

Question: And the TGI (UACC-257 melanoma)?
Answer: 27.4 µM

Question: And the TGI (786-0 renal)?
Answer: 30.9 µM

Question: And the TGI (U251 CNS)?
Answer: 29.7 µM

Question: And the TGI (K-562 leukemia)?
Answer: 54.9 µM

Question: And the TGI (NCI-H522 lung)?
Answer: 30.3 µM

Question: What about the TGI (SF-539 CNS) of the same compound?
Answer: 35.8 µM

Question: And the TGI (MDA-N)?
Answer: 28.8 µM

Question: And the TGI (HOP-92 NSCLC)?
Answer: 25.8 µM

Question: And the TGI (SF-268 CNS)?
Answer: 29.4 µM

Question: What about the TGI (HS 578T breast) of the same compound?
Answer: 35.5 µM

Question: And the TGI (OVCAR-8 ovarian)?
Answer: 33.7 µM

Question: What about the TGI (MOLT-4 leukemia) of the same compound?
Answer: > 100 µM

Question: What about the TGI (NCI/ADR-RES ovarian) of the same compound?
Answer: 35.4 µM

Question: And the TGI (SR leukemia)?
Answer: 44.6 µM

Question: What about the TGI (DU-145 prostate) of the same compound?
Answer: 31.2 µM

Question: And the TGI (LOX IMVI melanoma)?
Answer: 29.4 µM

Question: And the TGI (MCF7 breast)?
Answer: 32.8 µM

Question: What about the TGI (HOP-62 NSCLC) of the same compound?
Answer: 30.1 µM

Question: And the TGI (RXF 393 renal)?
Answer: 27.2 µM

Question: What about the TGI (HL-60(TB) leukemia) of the same compound?
Answer: 44.7 µM

Question: And the TGI (SK-MEL-5 melanoma)?
Answer: 29.3 µM

Question: And the TGI (HCT-116 colon)?
Answer: 29.7 µM

Question: What about the TGI (TK-10 renal) of the same compound?
Answer: 28 µM

Question: And the TGI (HCC-2998 colon)?
Answer: 27.5 µM

Question: What about the TGI (CCRF-CEM leukemia) of the same compound?
Answer: 83.1 µM

Question: What about the TGI (MDA-MB-435) of the same compound?
Answer: 29.5 µM

Question: What about the TGI (SK-OV-3 ovarian) of the same compound?
Answer: 32.9 µM

Question: What about the TGI (NCI-H23 lung) of the same compound?
Answer: 30.9 µM

Question: What about the TGI (COLO 205 colon) of the same compound?
Answer: 31.9 µM

Question: What about the TGI (IGROV1 ovarian) of the same compound?
Answer: 47.5 µM

Question: What about the TGI (KM12 colon) of the same compound?
Answer: 29.7 µM

Question: And the TGI (BT-549 breast)?
Answer: 31.6 µM

Question: And the TGI (SNB-75 CNS)?
Answer: 35.6 µM

Question: What about the TGI (MDA-MB-231 breast) of the same compound?
Answer: 29.4 µM

Question: What about the TGI (SF-295 CNS) of the same compound?
Answer: 31.9 µM

Question: What about the TGI (M14 melanoma) of the same compound?
Answer: 28.8 µM

Question: What about the TGI (HT29 colon) of the same compound?
Answer: 31.3 µM

Question: And the TGI (SN12C renal)?
Answer: 28.8 µM

Question: What about the TGI (SK-MEL-2 melanoma) of the same compound?
Answer: 28.8 µM

Question: What about the TGI (PC-3 prostate) of the same compound?
Answer: 30.3 µM

Question: And the TGI (OVCAR-4 ovarian)?
Answer: 38.3 µM

Question: And the TGI (UO-31 renal)?
Answer: 27.4 µM

Question: What about the TGI (ACHN renal) of the same compound?
Answer: 32.7 µM

Question: What about the TGI (A549 NSCLC) of the same compound?
Answer: 34.5 µM

Question: What about the TGI (CAKI-1 renal) of the same compound?
Answer: 33.4 µM

Question: And the TGI (A498 renal)?
Answer: 30.2 µM

Question: And the TGI (HCT-15 colon)?
Answer: 30.2 µM

Question: What about the TGI (NCI-H226 lung) of the same compound?
Answer: 26.6 µM

Question: What about the TGI (UACC-62 melanoma) of the same compound?
Answer: 29.4 µM

Question: And the TGI (SW-620 colon)?
Answer: 32.8 µM

Question: And the TGI (NCI-H460 lung)?
Answer: 33 µM

Question: And the TGI (MALME-3M melanoma)?
Answer: 25.2 µM
